Source: patent US20230111310A1, “CARBOXYLIC ACID DERIVATIVE-SUBSTITUTED IMINO ARYL COMPOUND, PREPARATION METHOD THEREFOR, HERBICIDAL COMPOSITION AND USE THEREOF” (Qingdao Kingagroot Chemical Compound Co., Ltd., priority 2020, published 2023)

Key:
Assay type in all cases: in vivo
Abutilon theophrasti [1] = assay: Weeding effect in pre-emergence stage; settings: 30 g/ha, 4 weeks
How it was run: (§1)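 Test compounds were dissolved in acetone with tween 80, diluted with water and sprayed right after sowing, with seeds covered by 0.5-2 cm of soil. Rates were 500 to 7.5 g/ha. Growth control was scored against activity-level criteria after 4 weeks in the greenhouse.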

Setaria viridis [2] = assay: Weeding effect in pre-emergence stage; settings: 30 g/ha, 4 weeks
How it was run: as §1

Veronica didyma Tenore = assay: Weeding effect in pre-emergence stage; settings: 30 g/ha, 4 weeks
How it was run: as §1

Amaranthus retroflexus [3] = assay: Weeding effect in pre-emergence stage; settings: 30 g/ha, 4 weeks
How it was run: as §1

Capsella bursa-pastoris = assay: Weeding effect in pre-emergence stage; settings: 30 g/ha, 4 weeks
How it was run: as §1

Descurainia sophia = assay: Weeding effect in pre-emergence stage; settings: 30 g/ha, 4 weeks
How it was run: as §1

Abutilon theophrasti [4] = assay: Weeding effect in post-emergence stage; settings: Dose 15 g/ha; level of fresh weight growth control rate
How it was run: (§2)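 Pot-grown greenhouse plants sprayed at 2–3 leaf stage, 2 weeks after sowing, with compound in acetone/Tween 80 plus methyl oleate emulsifiable concentrate (1.5 liter/ha) at 500–7.5 g/ha. Growth control rated 3 weeks after treatment; mean of three replicates.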

Setaria viridis [5] = assay: Weeding effect in post-emergence stage; settings: Dose 15 g/ha; level of fresh weight growth control rate
How it was run: as §2

Eleusine indica = assay: Weeding effect in post-emergence stage; settings: for Weeding effect in post-emergence stage, Eleusine indica: Dose 15 g/ha, level of fresh weight growth control rate
How it was run: as §2

Digitaria sanguinalis = assay: Weeding effect in post-emergence stage; settings: Dose 15 g/ha; level of fresh weight growth control rate
How it was run: as §2

Alopecurus japonicus = assay: Weeding effect in post-emergence stage; settings: Dose 15 g/ha; level of fresh weight growth control rate
How it was run: as §2

Amaranthus retroflexus [6] = assay: Weeding effect in post-emergence stage; settings: 7.5 g/ha, 3 weeks
How it was run: as §2

Echinochloa crusgalli = assay: Weeding effect in post-emergence stage; settings: for Weeding effect in post-emergence stage, Echinochloa crusgalli: Dose 15 g/ha, level of fresh weight growth control rate
How it was run: as §2

Soybeans = assay: Pre-emergence stage, crop selectivity; settings: 30 g/ha, 4 weeks
How it was run: as §1

corn = assay: Pre-emergence stage, crop selectivity; settings: 30 g/ha, 4 weeks
How it was run: as §1

Peanut = assay: Pre-emergence stage, crop selectivity; settings: 30 g/ha, 4 weeks
How it was run: as §1

cotton = assay: Pre-emergence stage, crop selectivity; settings: 30 g/ha, 4 weeks
How it was run: as §1

Rice = assay: Transplanted rice safety evaluation; settings: transplanted japonica rice, 30 g/ha, 21 days after treatment
Description: (§3) The activity level criteria for plant damage (i.e., growth control rate) are as follows:
In addition, the rice field soil that loaded into the 1/1,000,000 ha pot was leveled to keep water storage at 3-4 cm depth. The 5 leaf stage rice (japonica rice) was transplanted at 3 cm of transplanting depth the next day. The compound of the present invention was treated by the same way after 5 days of transplantation.
(§4) The fertility condition of Echinochloa crusgalli. Scirpus juncoides. Bidens tripartita L., Monochoria vaginalis, Leptochloa chinensis and Sagittaria trifolia 14 days after the treatment of the compound of the invention and the fertility condition of rice 21 days after the treatment of the compound of the invention respectively with the naked eye. Evaluate the weed control effect with the above activity standard level. Many compounds show excellent activity and selectivity.

Scirpus juncoides = assay: Weed control effect evaluation in rice field; settings: rice field pot, 30 g/ha, 14 days after treatment
From the text: as §3
(§5) Rice field soil was loaded into a 1/1,000,000 ha pot. The seeds of Echinochloa crusgalli. Scirpus juncoides. Bidens tripartita L., Monochoria vaginalis, and Leptochloa chinensis were sowed and gently covered with soil, then left to stand still in greenhouse in the state of 0.5-1 cm of water storage. The tuber of Sagittaria trifolia was planted in the next day or 2 days later. It was kept at 3-4 cm of water storage thereafter. The weeds were treated by dripping the WP or SC water diluents prepared according to the common preparation method of the compounds of the present invention with pipette homogeneously to achieve specified effective amount when Echinochloa crusgalli. Scirpus juncoides, Bidens tripartita L., Monochoria vaginalis, and Leptochloa chinensis reached 0.5 leaf stage and Sagittaria trifolia reached the time point of primary leaf stage.
as §4

Monochoria vaginalis = assay: Weed control effect evaluation in rice field; settings: rice field pot, 30 g/ha, 14 days after treatment
From the text: as §3, §5, §4

Leptochloa chinensis = assay: Weed control effect evaluation in rice field; settings: rice field pot, 30 g/ha, 14 days after treatment
From the text: as §3, §5, §4

[7] = post-emergence, 7.5 g/ha, 3 weeks

Row | Structure (SMILES) | activity level (growth control rate) Abutilon theophrasti (Abutilon theophrasti [1]) | activity level (growth control rate) Setaria viridis (Setaria viridis [2]) | activity level (growth control rate) Veronica didyma Tenore (Veronica didyma Tenore) | activity level (growth control rate) Amaranthus retroflexus (Amaranthus retroflexus [3]) | activity level (growth control rate) Capsella bursa-pastoris (Capsella bursa-pastoris) | activity level (growth control rate) Descurainia sophia (Descurainia sophia) | Weeding effect in post-emergence stage, Abutilon theophrasti (Abutilon theophrasti [4]) | Weeding effect in post-emergence stage, Setaria viridis (Setaria viridis [5]) | Weeding effect in post-emergence stage, Eleusine indica (Eleusine indica) | Weeding effect in post-emergence stage, Digitaria sanguinalis (Digitaria sanguinalis) | Weeding effect in post-emergence stage, Alopecurus japonicus (Alopecurus japonicus) | Weeding effect in post-emergence stage, Echinochloa crusgalli (Echinochloa crusgalli) | plant damage level Soybeans (Soybeans) | plant damage level Corn (corn) | plant damage level Peanut (Peanut) | plant damage level Cotton (cotton) | plant damage level Rice (Rice) | activity level (weed control effect) Scirpus juncoides (Scirpus juncoides) | activity level (weed control effect) Monochoria vaginalis (Monochoria vaginalis) | activity level (weed control effect) Leptochloa chinensis (Leptochloa chinensis) | further results
1 | COC(=O)[C@@H](C)O/N=C/c1cc(-n2c(=O)n(C)c(=S)n(C)c2=O)c(F)cc1Cl [1(R)] | 5 (Level 5: growth control rate is above 85%) | 5 (Level 5: growth control rate is above 85%) | 5 (Level 5: growth control rate is above 85%) | 5 (Level 5: growth control rate is above 85%) | 5 (Level 5: growth control rate is above 85%) | 5 (Level 5: growth control rate is above 85%) | 5 (Level 5: growth control rate is above 85%) | 5 (Level 5: growth control rate is above 85%) | 5 (Level 5: growth control rate is above 85%) | 5 (Level 5: growth control rate is above 85%) | 5 (Level 5: growth control rate is above 85%) | 5 (Level 5: growth control rate is above 85%) | 0 (Level 0: growth control rate is less than 5%) | 0 (Level 0: growth control rate is less than 5%) | 0 (Level 0: growth control rate is less than 5%) | 0 (Level 0: growth control rate is less than 5%) | – | – | – | – | activity level (growth control rate) Eleusine indica (Eleusine indica; [7]): 5 (Level 5: growth control rate is above 85%); activity level (growth control rate) Amaranthus retroflexus (Amaranthus retroflexus [6]): 5 (Level 5: growth control rate is above 85%); activity level (growth control rate) Echinochloa crusgalli (Echinochloa crusgalli; [7]): 4 (Level 4: growth control rate is greater than or equal to 60% and less than 85%)
2 | CCOC(=O)[C@@H](C)O/N=C/c1cc(-n2c(=O)cc(C(F)(F)F)n(C)c2=O)c(F)cc1Cl [196(R)] | 5 (Level 5: growth control rate is above 85%) | 5 (Level 5: growth control rate is above 85%) | 5 (Level 5: growth control rate is above 85%) | 5 (Level 5: growth control rate is above 85%) | 5 (Level 5: growth control rate is above 85%) | 5 (Level 5: growth control rate is above 85%) | 5 (Level 5: growth control rate is above 85%) | 5 (Level 5: growth control rate is above 85%) | 5 (Level 5: growth control rate is above 85%) | 5 (Level 5: growth control rate is above 85%) | 5 (Level 5: growth control rate is above 85%) | 5 (Level 5: growth control rate is above 85%) | 0 (Level 0: growth control rate is less than 5%) | 0 (Level 0: growth control rate is less than 5%) | 0 (Level 0: growth control rate is less than 5%) | 0 (Level 0: growth control rate is less than 5%) | 0 (Level 0: growth control rate is less than 5%) | 5 (Level 5: growth control rate is above 85%) | 5 (Level 5: growth control rate is above 85%) | 5 (Level 5: growth control rate is above 85%) | –
3 | C#CCOC(=O)[C@@H](C)O/N=C/c1cc(-n2c(=O)cc(C(F)(F)F)n(C)c2=O)c(F)cc1Cl [212(R)] | 5 (Level 5: growth control rate is above 85%) | 5 (Level 5: growth control rate is above 85%) | 5 (Level 5: growth control rate is above 85%) | 5 (Level 5: growth control rate is above 85%) | 5 (Level 5: growth control rate is above 85%) | 5 (Level 5: growth control rate is above 85%) | 5 (Level 5: growth control rate is above 85%) | 5 (Level 5: growth control rate is above 85%) | 5 (Level 5: growth control rate is above 85%) | 5 (Level 5: growth control rate is above 85%) | 5 (Level 5: growth control rate is above 85%) | 5 (Level 5: growth control rate is above 85%) | 0 (Level 0: growth control rate is less than 5%) | 0 (Level 0: growth control rate is less than 5%) | 0 (Level 0: growth control rate is less than 5%) | 0 (Level 0: growth control rate is less than 5%) | 0 (Level 0: growth control rate is less than 5%) | 5 (Level 5: growth control rate is above 85%) | 5 (Level 5: growth control rate is above 85%) | 5 (Level 5: growth control rate is above 85%) | –
4 | C[C@@H](O/N=C/c1cc(-n2c(=O)cc(C(F)(F)F)n(C)c2=O)c(F)cc1Cl)C(=O)OCC(F)(F)F [218(R)] | 5 (Level 5: growth control rate is above 85%) | 5 (Level 5: growth control rate is above 85%) | 5 (Level 5: growth control rate is above 85%) | 5 (Level 5: growth control rate is above 85%) | 5 (Level 5: growth control rate is above 85%) | 5 (Level 5: growth control rate is above 85%) | 5 (Level 5: growth control rate is above 85%) | 5 (Level 5: growth control rate is above 85%) | 5 (Level 5: growth control rate is above 85%) | 5 (Level 5: growth control rate is above 85%) | 5 (Level 5: growth control rate is above 85%) | 5 (Level 5: growth control rate is above 85%) | 0 (Level 0: growth control rate is less than 5%) | 0 (Level 0: growth control rate is less than 5%) | 0 (Level 0: growth control rate is less than 5%) | 0 (Level 0: growth control rate is less than 5%) | 0 (Level 0: growth control rate is less than 5%) | 5 (Level 5: growth control rate is above 85%) | 5 (Level 5: growth control rate is above 85%) | 5 (Level 5: growth control rate is above 85%) | –
